According to patent US9656990B2, “Cathepsin cysteine protease inhibitors” (Merck Sharp & Dohme Corp., priority 2014, dated 2017):

Legend:
human cathepsin F = target: T1, human cathepsin F (Homo sapiens, UniProt Q9UBX1); test: Cathepsin F Assay; assay type: biochemical; conditions: IP from dose response curve; Z-Phe-Arg-AMC substrate, pH 5.5; read-out: hCat F (IP (nM))
T1 sequence (Q9UBX1 271-484): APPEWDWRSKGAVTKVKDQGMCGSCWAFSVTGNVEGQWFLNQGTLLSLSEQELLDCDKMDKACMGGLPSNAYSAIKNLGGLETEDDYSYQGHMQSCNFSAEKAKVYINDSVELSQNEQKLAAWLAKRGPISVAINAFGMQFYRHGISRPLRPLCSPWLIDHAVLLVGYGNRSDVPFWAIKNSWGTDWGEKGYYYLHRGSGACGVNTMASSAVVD
In short: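 Human cathepsin F (10 nM) preincubated 15 min at room temperature with compounds in 50 mM MES pH 5.5, 2.5 mM EDTA, 2.5 mM DTT, 10% DMSO. Z-Phe-Arg-AMC (8 μM) added; AMC release read by fluorescence (Ex 360/Em 460 nm) over 20 min, inhibition fit to dose-response model.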

human cathepsin K = human cathepsin K (UniProt P43236, Y175D/V274L, species not given); test: Cathepsin K Assay; assay type: biochemical; conditions: IP from dose response curve; Z-Leu-Arg-AMC substrate, pH 5.5; read-out: hrbCat K (IP (nM))

Compound	IC50 (human cathepsin F) [nM]	IC50 (human cathepsin K) [nM]
N#CC1(NC(=O)[C@@H]2C[C@@H](F)CC[C@H]2c2nn(-c3ccc(F)cc3)cc2-c2ccc(N3CCS(=O)(=O)CC3)cc2)CC1 [Example 112, (1R,2R,5S)-N-(1-cyanocyclopropyl)-2-(4-(4-(1,1-dioxidothiomorpholino)phen-yl)-1-(4-fluorophenyl)-1H-pyrazol-3-yl)-5-fluorocyclohexanecarboxamide]	922	1.33
N#CC1(NC(=O)[C@@H]2CCCC[C@H]2c2nn(-c3cc(F)ccc3F)cc2-c2ccc(N3CCS(=O)(=O)CC3)cc2)CC1 [Example 114, (1R,2R)-N-(1-cyanocyclopropyl)-2-(1-(2,5-difluorophenyl)-4-(4-(1,1-dioxidothiomorpholino)phen-yl)-1H-pyrazol-3-yl)cyclohexanecarboxamide]	633	1.06
N#CC1(F)CCN(c2ccc(-c3cn(-c4ccc(F)cc4)nc3[C@@H]3CCCC[C@H]3C(=O)NC3(C#N)CC3)cc2)CC1 [Example 115, (1R,2R)-2-(4-(4-(4-cyano-4-fluoropiperidin-1-yl)phenyl)-1-(4-fluorophenyl)-1H-pyrazol-3-yl)-N-(1-cyanocyclopropyl)cyclohex-anecarboxamide]	804	6.62
CC1(C)CCC(C(=O)NC2(C#N)CC2)C(c2nn(-c3ccc(F)cc3)cc2-c2ccc(N3CCS(=O)(=O)CC3)cc2)C1 [Example 117, (1S,2S, or 1R,2R)-N-(1-cyanocyclopropyl)-2-(4-(4-(1,1-dioxidothiomorpholino)phen-yl)-1-(4-fluorophenyl)-1H-pyrazol-3-yl)-4,4-dimethylcyclohexanecarbox-amide]	1570	13.9
N#CC1(NC(=O)[C@@H]2CCCC[C@H]2c2nn(-c3cc(F)cc(F)c3)cc2-c2ccc(N3CCS(=O)(=O)CC3)cc2)CC1 [Example 118, (1R,2R)-N-(1-cyanocyclopropyl)-2-(1-(3,5-difluorophenyl)-4-(4-(1,1-dioxidothiomorpholino)phen-yl)-1H-pyrazol-3-yl)cyclohexanecarboxamide]	273	0.54
N#CC1(NC(=O)[C@@H]2CCCC[C@H]2c2nn(-c3ccc(OC(F)(F)F)cc3)cc2-c2ccc(N3CCS(=O)(=O)CC3)cc2)CC1 [Example 119, (1R,2R)-N-(1-cyanocyclopropyl)-2-(4-(4-(1,1-dioxidothiomorpholino)phen-yl)-1-(4-(trifluoromethoxy)phenyl)-1H-pyrazol-3-yl)cyclohexanecarboxamide]	562	1.8
N#CC1(NC(=O)[C@@H]2CCCC[C@H]2c2nn(-c3ccccc3C(F)(F)F)cc2-c2ccc(N3CCS(=O)(=O)CC3)cc2)CC1 [Example 120, (1R,2R)-N-(1-cyanocyclopropyl)-2-(4-(4-(1,1-dioxidothiomorpholino)phen-yl)-1-(2-(trifluoromethyl)phenyl)-1H-pyrazol-3-yl)cyclohexanecarboxamide]	3120	6.72
N#CC1(NC(=O)[C@@H]2CCCC[C@H]2c2nn(-c3ccc(C(F)(F)F)cc3)cc2-c2ccc(N3CCS(=O)(=O)CC3)cc2)CC1 [Example 121, (1R,2R)-N-(1-cyanocyclopropyl)-2-(4-(4-(1,1-dioxidothiomorpholino)phen-yl)-1-(4-(trifluoromethyl)phenyl)-1H-pyrazol-3-yl)cyclohexanecarboxamide]	649	3.08
N#CC1(NC(=O)[C@@H]2CCCC[C@H]2c2nn(-c3cccc(OC(F)(F)F)c3)cc2-c2ccc(N3CCS(=O)(=O)CC3)cc2)CC1 [Example 122, (1R,2R)-N-(1-cyanocyclopropyl)-2-(4-(4-(1,1-dioxidothiomorpholino)phen-yl)-1-(3-(trifluoromethoxy)phenyl)-1H-pyrazol-3-yl)cyclohexanecarboxamide]	466	0.78
N#CC1(NC(=O)[C@@H]2CCCC[C@H]2c2nn(-c3ccc(-n4cccn4)cc3)cc2-c2ccc(N3CCS(=O)(=O)CC3)cc2)CC1 [Example 123, (1R,2R)-2-(1-(4-(1H-pyrazol-1-yl)phenyl)-4-(4-(1,1-dioxidothiomorpholino)phen-yl)-1H-pyrazol-3-yl)-N-(1-cyanocyclopropyl)cyclohex-anecarboxamide]	593	0.96
N#CC1(NC(=O)[C@@H]2CCCC[C@H]2c2nn(-c3cccc(C(F)(F)F)c3)cc2-c2ccc(N3CCS(=O)(=O)CC3)cc2)CC1 [Example 124, (1R,2R)-N-(1-cyanocyclopropyl)-2-(4-(4-(1,1-dioxidothiomorpholino)phen-yl)-1-(3-(trifluoromethyl)phenyl)-1H-pyrazol-3-yl)cyclohexanecarboxamide]	588	1.58
N#CC1(NC(=O)[C@@H]2CCCC[C@H]2c2nn(-c3ccccc3OC(F)(F)F)cc2-c2ccc(N3CCS(=O)(=O)CC3)cc2)CC1 [Example 125, (1R,2R)-N-(1-cyanocyclopropyl)-2-(4-(4-(1,1-dioxidothiomorpholino)phen-yl)-1-(2-(trifluoromethoxy)phenyl)-1H-pyrazol-3-yl)cyclohexanecarboxamide]	836	2.18
N#CC1(NC(=O)[C@@H]2CCCC[C@H]2c2nn(-c3cc(F)c(F)c(F)c3)cc2-c2ccc(N3CCS(=O)(=O)CC3)cc2)CC1 [Example 128, (1R,2R)-N-(1-cyanocyclopropyl)-2-(4-(4-(1,1-dioxidothiomorpholino)phen-yl)-1-(3,4,5-trifluorophenyl)-1H-pyrazol-3-yl)cyclohexanecarboxamide]	319	0.79
N#CC1(NC(=O)[C@@H]2CCCC[C@H]2c2nn(-c3ccc(F)cc3)cc2-c2ccc(N3CCS(=N)(=O)CC3)cc2)CC1 [Example 129, (1R,2R)-N-(1-cyanocyclopropyl)-2-(1-(4-fluorophenyl)-4-(4-(1-imino-1-oxidothiomorpholino)phenyl)-1H-pyrazol-3-yl)cyclohexanecarboxamide]	932	1.84
CN=S1(=O)CCN(c2ccc(-c3cn(-c4ccc(F)cc4)nc3[C@@H]3CCCC[C@H]3C(=O)NC3(C#N)CC3)cc2)CC1 [Example 130, (1R,2R)-N-(1-cyanocyclopropyl)-2-(1-(4-fluorophenyl)-4-(4-(1-(methylimino)-1-oxidothiomorpholino)phenyl)-1H-pyrazol-3-yl)cyclohexanecarboxamide]	854	1.92
N#CC1(NC(=O)[C@@H]2CCCC[C@H]2c2nn(-c3ccc(F)cc3F)cc2-c2ccc(N3CCS(=O)(=O)CC3)cc2)CC1 [Example 131, (1R,2R)-N-(1-cyanocyclopropyl)-2-(1-(2,4-difluorophenyl)-4-(4-(1,1-dioxidothiomorpholino)phen-yl)-1H-pyrazol-3-yl)cyclohexanecarboxamide]	1540	2.49
N#Cc1ccc(-n2cc(-c3ccc(N4CCS(=O)(=O)CC4)cc3)c([C@@H]3CCCC[C@H]3C(=O)NC3(C#N)CC3)n2)c(F)c1 [Example 132, (1R,2R)-2-(1-(4-cyano-2-fluorophenyl)-4-(4-(1,1-dioxidothiomorpholino)phen-yl)-1H-pyrazol-3-yl)-N-(1-cyanocyclopropyl)cyclohex-anecarboxamide]	733	2.51
N#CC1(NC(=O)[C@@H]2CCCC[C@H]2c2nn(-c3c(F)cccc3F)cc2-c2ccc(N3CCS(=O)(=O)CC3)cc2)CC1 [Example 133, (1R,2R)-N-(1-cyanocyclopropyl)-2-(1-(2,6-difluorophenyl)-4-(4-(1,1-dioxidothiomorpholino)phen-yl)-1H-pyrazol-3-yl)cyclohexanecarboxamide]	2340	3.56
CC(=O)N1CC(c2ccc(-c3cn(-c4ccc(F)cc4)nc3[C@@H]3CCCC[C@H]3C(=O)NC3(C#N)CC3)cc2)C1 [Example 134, (1R,2R)-2-(4-(4-(1-acetylazetidin-3-yl)phenyl)-1-(4-fluorophenyl)-1H-pyrazol-3-yl)-N-(1-cyanocyclopropyl)cyclohex-anecarboxamide]	210	1.57
CNC(=O)N1CC(c2ccc(-c3cn(-c4ccc(F)cc4)nc3[C@@H]3CCCC[C@H]3C(=O)NC3(C#N)CC3)cc2)C1 [Example 135, 3-(4-(3-((1R,2R)-2-((1-cyanocyclopropyl)carbamoyl)cyclohexyl)-1-(4-fluorophenyl)-1H-pyrazol-4-yl)phenyl)-N-methylazetidine-1-carboxamide]	64	0.71
N#CC1(NC(=O)[C@@H]2CCCC[C@H]2c2nn(-c3ccc(F)cc3)cc2-c2ccc(C3CN(C(=O)NCC(F)(F)F)C3)cc2)CC1 [Example 136, 3-(4-(3-((1R,2R)-2-((1-cyanocyclopropyl)carbamoyl)cyclohexyl)-1-(4-fluorophenyl)-1H-pyrazol-4-yl)phenyl)-N-(2,2,2-trifluoroethyl)azetidine-1-carboxamide]	83	0.97
N#CC1(NC(=O)[C@@H]2CCCC[C@H]2c2nn(-c3ccc4[nH]ccc4c3)cc2-c2ccc(N3CCS(=O)(=O)CC3)cc2)CC1 [Example 137, (1R,2R)-N-(1-cyanocyclopropyl)-2-(4-(4-(1,1-dioxidothiomorpholino)phen-yl)-1-(1H-indol-5-yl)-1H-pyrazol-3-yl)cyclohexanecarboxamide]	2830	8.43
